Measurements from PubChem BioAssay (NCI).
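Tested at 5 concentrations; 48 h exposure; 96-well plates; endpoints linearly interpolated, else capped at highest concentration. GI50 = concentration required for 50% inhibition of growth. TGI denotes the concentration required for complete inhibition of growth.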

Key:
Assay in all cases: NCI anticancer screen, dose series, 48 h
786-0 renal = system: 786-0 renal
A498 renal = system: A498 renal
A549 NSCLC = system: A549 NSCLC
ACHN renal = system: ACHN renal
BT-549 breast = system: BT-549 breast
CAKI-1 renal = system: CAKI-1 renal
CCRF-CEM leukemia = system: CCRF-CEM leukemia
COLO 205 colon = system: COLO 205 colon
DU-145 prostate = system: DU-145 prostate
HCC-2998 colon = system: HCC-2998 colon
HCT-116 colon = system: HCT-116 colon
HCT-15 colon = system: HCT-15 colon
HL-60(TB) leukemia = system: HL-60(TB) leukemia
HOP-62 NSCLC = system: HOP-62 NSCLC
HOP-92 NSCLC = system: HOP-92 NSCLC
HS 578T breast = system: HS 578T breast
HT29 colon = system: HT29 colon
IGROV1 ovarian = system: IGROV1 ovarian
K-562 leukemia = system: K-562 leukemia
KM12 colon = system: KM12 colon
LOX IMVI melanoma = system: LOX IMVI melanoma
M14 melanoma = system: M14 melanoma
MALME-3M melanoma = system: MALME-3M melanoma
MCF7 breast = system: MCF7 breast
MDA-MB-231 breast = system: MDA-MB-231 breast
MDA-MB-435 = system: MDA-MB-435
MOLT-4 leukemia = system: MOLT-4 leukemia
NCI-H226 lung = system: NCI-H226 lung
NCI-H23 lung = system: NCI-H23 lung
NCI-H460 lung = system: NCI-H460 lung
NCI-H522 lung = system: NCI-H522 lung
NCI/ADR-RES ovarian = system: NCI/ADR-RES ovarian
OVCAR-3 ovarian = system: OVCAR-3 ovarian
OVCAR-4 ovarian = system: OVCAR-4 ovarian
OVCAR-5 ovarian = system: OVCAR-5 ovarian
OVCAR-8 ovarian = system: OVCAR-8 ovarian
PC-3 prostate = system: PC-3 prostate
RPMI-8226 leukemia = system: RPMI-8226 leukemia
RXF 393 renal = system: RXF 393 renal
SF-268 CNS = system: SF-268 CNS
SF-295 CNS = system: SF-295 CNS
SF-539 CNS = system: SF-539 CNS
SK-MEL-2 melanoma = system: SK-MEL-2 melanoma
SK-MEL-28 melanoma = system: SK-MEL-28 melanoma
SK-MEL-5 melanoma = system: SK-MEL-5 melanoma
SK-OV-3 ovarian = system: SK-OV-3 ovarian
SN12C renal = system: SN12C renal
SNB-19 CNS = system: SNB-19 CNS
SNB-75 CNS = system: SNB-75 CNS
SR leukemia = system: SR leukemia
SW-620 colon = system: SW-620 colon
T-47D breast = system: T-47D breast
TK-10 renal = system: TK-10 renal
U251 CNS = system: U251 CNS
UACC-257 melanoma = system: UACC-257 melanoma
UACC-62 melanoma = system: UACC-62 melanoma
UO-31 renal = system: UO-31 renal

Cn1cc(C2=C(c3c4n(c5ccccc35)CCCCC4)C(=O)NC2=O)c2ccccc21
GI50 (786-0 renal): 7.76 µM
TGI (786-0 renal): > 25 µM
GI50 (A498 renal): 1.05 µM
TGI (A498 renal): 19.4 µM
GI50 (A549 NSCLC): 3.72 µM
TGI (A549 NSCLC): > 25 µM
GI50 (ACHN renal): 6.05 µM
TGI (ACHN renal): > 25 µM
GI50 (BT-549 breast): > 11.7 µM
TGI (BT-549 breast): > 25 µM
GI50 (CAKI-1 renal): 2.53 µM
TGI (CAKI-1 renal): > 20.2 µM
GI50 (CCRF-CEM leukemia): 5.21 µM
TGI (CCRF-CEM leukemia): > 22.7 µM
GI50 (COLO 205 colon): 4.56 µM
TGI (COLO 205 colon): > 18.8 µM
GI50 (DU-145 prostate): 5.4 µM
TGI (DU-145 prostate): > 17.3 µM
GI50 (HCC-2998 colon): 12.4 µM
TGI (HCC-2998 colon): > 25 µM
GI50 (HCT-116 colon): 4.21 µM
TGI (HCT-116 colon): > 25 µM
GI50 (HCT-15 colon): 1.69 µM
TGI (HCT-15 colon): > 25 µM
GI50 (HL-60(TB) leukemia): 1.39 µM
TGI (HL-60(TB) leukemia): 16.2 µM
GI50 (HOP-62 NSCLC): > 12.5 µM
TGI (HOP-62 NSCLC): > 25 µM
GI50 (HOP-92 NSCLC): 1.48 µM
TGI (HOP-92 NSCLC): > 25 µM
GI50 (HS 578T breast): 1.7 µM
TGI (HS 578T breast): 19.8 µM
GI50 (HT29 colon): 2.57 µM
TGI (HT29 colon): > 25 µM
GI50 (IGROV1 ovarian): 3.55 µM
TGI (IGROV1 ovarian): > 25 µM
GI50 (K-562 leukemia): 1.38 µM
TGI (K-562 leukemia): > 25 µM
GI50 (KM12 colon): 2.97 µM
TGI (KM12 colon): > 25 µM
GI50 (LOX IMVI melanoma): 9.4 µM
TGI (LOX IMVI melanoma): > 25 µM
GI50 (M14 melanoma): 4.69 µM
TGI (M14 melanoma): > 25 µM
GI50 (MALME-3M melanoma): > 11.5 µM
TGI (MALME-3M melanoma): > 25 µM
GI50 (MCF7 breast): 1.36 µM
TGI (MCF7 breast): > 25 µM
GI50 (MDA-MB-231 breast): 6.42 µM
TGI (MDA-MB-231 breast): > 25 µM
GI50 (MDA-MB-435): 0.7 µM
TGI (MDA-MB-435): 3.01 µM
GI50 (MOLT-4 leukemia): 7.04 µM
TGI (MOLT-4 leukemia): > 25 µM
GI50 (NCI-H226 lung): 12 µM
TGI (NCI-H226 lung): > 25 µM
GI50 (NCI-H23 lung): 10.6 µM
TGI (NCI-H23 lung): > 25 µM
GI50 (NCI-H460 lung): 6.51 µM
TGI (NCI-H460 lung): > 25 µM
GI50 (NCI-H522 lung): 1.02 µM
TGI (NCI-H522 lung): 8.14 µM
GI50 (NCI/ADR-RES ovarian): 2.17 µM
TGI (NCI/ADR-RES ovarian): > 25 µM
GI50 (OVCAR-3 ovarian): 1.21 µM
TGI (OVCAR-3 ovarian): 8.05 µM
GI50 (OVCAR-4 ovarian): 7.32 µM
TGI (OVCAR-4 ovarian): > 25 µM
GI50 (OVCAR-5 ovarian): > 19.5 µM
TGI (OVCAR-5 ovarian): > 25 µM
GI50 (OVCAR-8 ovarian): 10.7 µM
TGI (OVCAR-8 ovarian): > 25 µM
GI50 (PC-3 prostate): 3.2 µM
TGI (PC-3 prostate): > 25 µM
GI50 (RPMI-8226 leukemia): 6.88 µM
TGI (RPMI-8226 leukemia): > 19.2 µM
GI50 (RXF 393 renal): 1.42 µM
TGI (RXF 393 renal): 7.23 µM
GI50 (SF-268 CNS): 4.9 µM
TGI (SF-268 CNS): > 25 µM
GI50 (SF-295 CNS): 1.31 µM
TGI (SF-295 CNS): > 14.7 µM
GI50 (SF-539 CNS): 2.86 µM
TGI (SF-539 CNS): 15.5 µM
GI50 (SK-MEL-2 melanoma): 2.12 µM
TGI (SK-MEL-2 melanoma): > 18.8 µM
GI50 (SK-MEL-28 melanoma): 12.6 µM
TGI (SK-MEL-28 melanoma): > 25 µM
GI50 (SK-MEL-5 melanoma): 2.66 µM
TGI (SK-MEL-5 melanoma): 13.1 µM
GI50 (SK-OV-3 ovarian): 7.11 µM
TGI (SK-OV-3 ovarian): > 25 µM
GI50 (SN12C renal): 9.88 µM
TGI (SN12C renal): > 25 µM
GI50 (SNB-19 CNS): > 18.1 µM
TGI (SNB-19 CNS): > 25 µM
GI50 (SNB-75 CNS): 1.4 µM
TGI (SNB-75 CNS): 11.6 µM
GI50 (SR leukemia): 1.19 µM
TGI (SR leukemia): > 20.9 µM
GI50 (SW-620 colon): 2.19 µM
TGI (SW-620 colon): > 25 µM
GI50 (T-47D breast): 8.64 µM
TGI (T-47D breast): > 25 µM
GI50 (TK-10 renal): 6.38 µM
TGI (TK-10 renal): > 25 µM
GI50 (U251 CNS): 6.61 µM
TGI (U251 CNS): > 25 µM
GI50 (UACC-257 melanoma): > 25 µM
TGI (UACC-257 melanoma): > 25 µM
GI50 (UACC-62 melanoma): 1.27 µM
TGI (UACC-62 melanoma): > 25 µM
GI50 (UO-31 renal): 5.75 µM
TGI (UO-31 renal): > 25 µM
